Laboratory results from PubChem BioAssay AID292 (DTP/NCI, 2004).
Values joined by “and” are separate entries in the source; they are usually repeats but may differ in a detail not shown here. Equal values may be shown once. Inconclusive results and toxic doses are left out. How the source made its calls: active means survival T/C of 150% or more; inactive means T/C below 125% in these data.

Tested on: B6C3F1 mice, ip Sarcoma M5076, median survival T/C
Experiment: NCI In Vivo Anticancer Drug Screen. Data for tumor model Sarcoma M5076 (intraperitoneal) in B6C3F1 mice
Details: endpoint: median survival time, schedule: Q04DX004 (ip), higher = longer survival
In short: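 Tumour cells were transplanted into mice, compound or vehicle was given, survival of both groups was followed, and the treated figure was expressed over the control figure.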

[1] = dose: 75.0 mg/kg/injection, vehicle: Klucel (hydroxypropylcellulose) (HPC)
[2] = dose: 150.0 mg/kg/injection, vehicle: Klucel (hydroxypropylcellulose) (HPC)
[3] = dose: 6.25 mg/kg/injection, vehicle: suspension in saline
[4] = dose: 12.5 mg/kg/injection, vehicle: suspension in saline
[5] = dose: 25.0 mg/kg/injection, vehicle: suspension in saline
[6] = dose: 12.5 mg/kg/injection, vehicle: Klucel (hydroxypropylcellulose) (HPC)
[7] = dose: 25.0 mg/kg/injection, vehicle: Klucel (hydroxypropylcellulose) (HPC)
[8] = dose: 50.0 mg/kg/injection, vehicle: Klucel (hydroxypropylcellulose) (HPC)
[9] = dose: 100.0 mg/kg/injection, vehicle: Klucel (hydroxypropylcellulose) (HPC)
[10] = dose: 200.0 mg/kg/injection, vehicle: Klucel (hydroxypropylcellulose) (HPC)
[11] = dose: 400.0 mg/kg/injection, vehicle: Klucel (hydroxypropylcellulose) (HPC)
[12] = dose: 37.5 mg/kg/injection, vehicle: Klucel (hydroxypropylcellulose) (HPC)
[13] = dose: 300.0 mg/kg/injection, vehicle: Klucel (hydroxypropylcellulose) (HPC)

Measured: T/C

CCCCCCC1C(C#N)C(=O)NC(=O)C1C#N (stereo not given)
inactive: dose: 40.63 mg/kg/injection, vehicle: Klucel (hydroxypropylcellulose) (HPC) 95 % of control | dose: 81.25 mg/kg/injection, vehicle: Klucel (hydroxypropylcellulose) (HPC) 94 % of control | dose: 162.5 mg/kg/injection, vehicle: Klucel (hydroxypropylcellulose) (HPC) 101 % of control | dose: 325.0 mg/kg/injection, vehicle: Klucel (hydroxypropylcellulose) (HPC) 92 % of control | dose: 650.0 mg/kg/injection, vehicle: Klucel (hydroxypropylcellulose) (HPC) 87 % of control

CN1CCc2c(c3ccccc3c3ccccc23)C1
inactive: [1] 114 % of control | [2] 122 % of control

O=c1c(O)c(O)c1=O.[NH2-].[NH2-].[NH2-].[NH2-].[NH2-].[Ru+5]
inactive: [3] 98 % of control | [4] 97 % of control | [5] 98 % of control

CCCCCCCCCCCCN1C(C)=CS/C1=C\C=C\c1scc(C)[n+]1CCCCCCCCCCCC
inactive: dose: 0.75 mg/kg/injection, vehicle: saline with Tween-80 119 % of control | dose: 1.5 mg/kg/injection, vehicle: saline with Tween-80 116 % of control

COc1cc2c(cc1OC)-c1c3c(cc4c1[C@@H](C2)N(C)CC4)OCO3
inactive: dose: 12.5 mg/kg/injection, vehicle: distilled water + Tween-80 101 % of control | dose: 25.0 mg/kg/injection, vehicle: distilled water + Tween-80 100 % of control | dose: 50.0 mg/kg/injection, vehicle: distilled water + Tween-80 100 % of control | dose: 100.0 mg/kg/injection, vehicle: distilled water + Tween-80 95 % of control

O=C(O)c1ccc(NC(=O)C2C(=O)C(=O)N(c3ccc(C(=O)O)cc3)C2=O)cc1 (stereo not given)
inactive: dose: 50.0 mg/kg/injection, vehicle: Klucel + Tween-80 108 % of control | dose: 100.0 mg/kg/injection, vehicle: Klucel + Tween-80 100 % of control | dose: 200.0 mg/kg/injection, vehicle: Klucel + Tween-80 91 % of control | dose: 400.0 mg/kg/injection, vehicle: Klucel + Tween-80 97 % of control

CC(/C=C/C1OC(=O)C=CC1C)=C\C(C)C/C=C/C(C)=C/C(C)C(=O)C(C)C(O)C(C)C/C(C)=C/C(=O)O (stereo not given)
active: dose: 50.0 micrograms/kg/injection, vehicle: saline + alcohol 150 % of control | dose: 400.0 micrograms/kg/injection, vehicle: saline + alcohol 177 % of control
inactive: dose: 25.0 micrograms/kg/injection, vehicle: saline + alcohol 118 % of control | dose: 100.0 micrograms/kg/injection, vehicle: saline + alcohol 123 % of control

O=C(O)CC(Sc1ccc(Cl)cc1)C(=O)Nc1ccccc1 (stereo not given)
inactive: dose: 31.25 mg/kg/injection, vehicle: saline with Tween-80 99 % of control | dose: 62.5 mg/kg/injection, vehicle: saline with Tween-80 102 % of control | dose: 125.0 mg/kg/injection, vehicle: saline with Tween-80 90 % of control | dose: 500.0 mg/kg/injection, vehicle: saline with Tween-80 94 % of control

Cc1ccc(/C=C/C(=O)/C=C/c2ccc(C)o2)o1
inactive: dose: 50.0 mg/kg/injection, vehicle: other 101 % of control | dose: 100.0 mg/kg/injection, vehicle: other 109 % of control | dose: 200.0 mg/kg/injection, vehicle: other 108 % of control | dose: 400.0 mg/kg/injection, vehicle: other 101 % of control | dose: 800.0 mg/kg/injection, vehicle: other 95 % of control

COc1ccc2nc(C)cc(N/N=C/c3cccnc3)c2c1
inactive: [6] 104 % of control | [7] 114 % of control | [8] 116 % of control | [9] 117 % of control

Oc1c(Cl)cc(Cl)cc1C=NCCSc1ccc(Cl)cc1
inactive: [8] 97 % of control and 121 % of control | [9] 98 % of control and 117 % of control | [10] 97 % of control and 110 % of control | [11] 94 % of control and 112 % of control | dose: 800.0 mg/kg/injection, vehicle: Klucel (hydroxypropylcellulose) (HPC) 100 % of control

CN(C)c1ccc2c(SCC(=O)OCC(=O)[C@@]3(O)CC[C@H]4[C@@H]5CCC6=CC(=O)C=C[C@]6(C)[C@H]5C(=O)C[C@@]43C)c3ccc(N(C)C)cc3nc2c1
inactive: [7] 101 % of control | [8] 103 % of control | [9] 97 % of control | [10] 90 % of control | [11] 94 % of control

CN(C)C(=O)c1cccc(COc2ccc(N3C(N)=NC(N)=NC3(C)C)cc2Cl)c1
inactive: [3] 90 % of control | [4] 102 % of control | [5] 93 % of control | dose: 50.0 mg/kg/injection, vehicle: suspension in saline 97 % of control | dose: 100.0 mg/kg/injection, vehicle: suspension in saline 113 % of control

CCOC(=O)/C=C1/SC(N2CCCCC2)C(=O)N1CC (stereo not given)
inactive: [8] 96 % of control | [9] 96 % of control | [10] 97 % of control | [11] 94 % of control

O=C(Nc1ccc2ccccc2c1)C1C(=O)C(=O)N(c2ccc3ccccc3c2)C1=O (stereo not given)
inactive: [8] 100 % of control | [9] 100 % of control | [10] 93 % of control

COc1ccc2[nH]c3ccc4cc[n+](CCN5CCC(C6CCN(CC[n+]7ccc8ccc9[nH]c%10ccc(OC)cc%10c9c8c7)CC6)CC5)cc4c3c2c1
active: dose: 16.0 mg/kg/injection, vehicle: water 157 % of control | dose: 32.0 mg/kg/injection, vehicle: water 194 % of control

COc1ccc(-c2nnc3cc(C)n4nnnc4n23)cc1OC
inactive: dose: 18.75 mg/kg/injection, vehicle: Klucel (hydroxypropylcellulose) (HPC) 99 % of control | [12] 94 % of control | [1] 98 % of control | [2] 99 % of control | [13] 91 % of control

COc1cc2c(oc(=O)c3cc(C)cc(OC)c32)c2c(C3OC(C)C(O)C(C)(O)C3O)ccc(O)c12 (stereo not given)
inactive: dose: 3.12 mg/kg/injection, vehicle: DMSO 106 % of control and 107 % of control | dose: 6.25 mg/kg/injection, vehicle: DMSO 101 % of control and 109 % of control | dose: 12.5 mg/kg/injection, vehicle: DMSO 101 % of control and 107 % of control | dose: 25.0 mg/kg/injection, vehicle: DMSO 109 % of control and 112 % of control | dose: 50.0 mg/kg/injection, vehicle: DMSO 103 % of control and 109 % of control

C/C(=N\Nc1cc(C)nc2ccc(C)cc12)c1cn(C)n(-c2ccccc2)c1=O
inactive: dose: 31.25 mg/kg/injection, vehicle: Klucel (hydroxypropylcellulose) (HPC) 86 % of control

NC1=NCc2c(sc3c2CCCC3)N1
inactive: [6] 94 % of control | [7] 94 % of control | [8] 96 % of control | [9] 93 % of control

NC(=O)c1oc([N+](=O)[O-])c(-c2ccccc2)c1-c1ccccc1
inactive: dose: 37.5 mg/kg/injection, vehicle: saline with Tween-80 98 % of control | dose: 75.0 mg/kg/injection, vehicle: saline with Tween-80 93 % of control | dose: 150.0 mg/kg/injection, vehicle: saline with Tween-80 94 % of control | dose: 300.0 mg/kg/injection, vehicle: saline with Tween-80 89 % of control

N#CC1C(=O)NC(=S)NC1c1ccc(Cl)c(Cl)c1 (stereo not given)
inactive: [12] 94 % of control | [1] 99 % of control | [2] 97 % of control | [13] 91 % of control | dose: 600.0 mg/kg/injection, vehicle: Klucel (hydroxypropylcellulose) (HPC) 89 % of control
